Legend:
Substance-P receptor [1] = target: T1, Substance-P receptor (Homo sapiens, UniProt P25103); assay: Binding affinity against recombinant human tachykinin receptor 1 in CHO cells using [3H]-Sar SP as a radioligand; format: cell-based
[2] = target: T2, Substance-K receptor (Homo sapiens) (UniProt P21452); assay: (§1) Binding affinity against recombinant human tachykinin receptor 2 in CHO cells using [3H]NKA as a radioligand; format: cell-based; set-up: concentration or dose not given beside the values; conditions: concentration not given here
T2 sequence (whole entry): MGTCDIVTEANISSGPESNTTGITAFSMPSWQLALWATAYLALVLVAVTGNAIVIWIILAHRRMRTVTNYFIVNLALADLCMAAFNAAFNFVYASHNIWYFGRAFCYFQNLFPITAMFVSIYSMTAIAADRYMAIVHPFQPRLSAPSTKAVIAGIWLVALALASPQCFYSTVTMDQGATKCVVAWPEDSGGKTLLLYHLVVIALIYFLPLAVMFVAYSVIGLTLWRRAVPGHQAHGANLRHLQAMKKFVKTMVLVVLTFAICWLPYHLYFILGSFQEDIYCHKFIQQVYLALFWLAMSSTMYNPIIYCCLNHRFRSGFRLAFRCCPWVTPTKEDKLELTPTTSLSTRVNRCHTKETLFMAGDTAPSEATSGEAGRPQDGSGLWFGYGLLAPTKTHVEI

[3] = Area under curve was determined at a dose 30 mpk administered orally.; format: ADME, organism-based; conditions: rat, in vivo, po, 30 mg/kg
[4] = target: T3, Substance-K receptor (Cavia porcellus) (UniProt Q64077); assay: Inhibitory activity against Tachykinin receptor 2 evaluated as beta-ala-NKA (410) induced bronchospasm inhibition after a oral dose of 10 mpk in guinea pig; format: functional
T3 sequence (whole entry): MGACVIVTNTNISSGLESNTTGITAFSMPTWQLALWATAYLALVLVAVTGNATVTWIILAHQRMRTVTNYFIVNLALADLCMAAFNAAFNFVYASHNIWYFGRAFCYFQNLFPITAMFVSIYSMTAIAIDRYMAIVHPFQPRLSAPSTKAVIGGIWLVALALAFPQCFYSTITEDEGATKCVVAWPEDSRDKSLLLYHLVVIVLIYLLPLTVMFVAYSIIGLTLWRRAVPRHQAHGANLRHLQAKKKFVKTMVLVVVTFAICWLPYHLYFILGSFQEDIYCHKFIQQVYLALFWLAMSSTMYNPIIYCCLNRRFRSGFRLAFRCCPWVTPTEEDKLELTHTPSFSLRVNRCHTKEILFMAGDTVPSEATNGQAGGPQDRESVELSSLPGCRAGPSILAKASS

Substance-K receptor = target: T4, Substance-K receptor (Homo sapiens, UniProt P21452); assay: as §1; format: cell-based
T4 sequence (P21452 whole entry): T2 sequence (whole entry)

Substance-P receptor [5] = target: T1, Substance-P receptor; assay: The compound was evaluated for the binding affinity against recombinant human Tachykinin receptor 1 in CHO cells using [3H]-Sar SP as a radioligand; format: cell-based; conditions: concentration not given here

T1 sequence (P25103 whole entry): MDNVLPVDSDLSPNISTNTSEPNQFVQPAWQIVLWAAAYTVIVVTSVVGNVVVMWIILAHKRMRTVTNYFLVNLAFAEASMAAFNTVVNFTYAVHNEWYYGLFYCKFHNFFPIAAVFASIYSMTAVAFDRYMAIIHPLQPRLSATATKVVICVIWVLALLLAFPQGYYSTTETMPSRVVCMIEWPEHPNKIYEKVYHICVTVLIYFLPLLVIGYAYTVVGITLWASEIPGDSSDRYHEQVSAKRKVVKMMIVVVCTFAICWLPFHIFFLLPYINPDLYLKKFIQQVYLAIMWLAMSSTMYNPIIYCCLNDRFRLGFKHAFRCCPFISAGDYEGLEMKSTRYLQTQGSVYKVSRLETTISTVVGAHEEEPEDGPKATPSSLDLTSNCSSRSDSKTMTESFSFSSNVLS

| SMILES | Ki (Substance-P receptor [1]) [nM] | Ki (Substance-K receptor) [nM] | further results |
| --- | --- | --- | --- |
| CO/C=C(\COCc1cc(C(F)(F)F)cc(C(F)(F)F)c1)C(CCN1CCC(O)(c2ccccc2)CC1)c1ccc(Cl)c(Cl)c1 (stereo unspecified) | 33 | – | inhibition [2]: 35% |
| CN(C/C(=N\OCC(=N)NO)C(CCN1CCC(N2CCCCC2=O)CC1)c1ccc(Cl)c(Cl)c1)C(=O)c1cc(Cl)cc(Cl)c1 (stereo unspecified) | 0.7 | 0.7 | AUC [3]: 3 µM·h; inhibition [4]: 94% |
| OC1(c2ccccc2)CCN(CCC(/C(COCc2cc(C(F)(F)F)cc(C(F)(F)F)c2)=N/Oc2ccccc2)c2ccc(Cl)c(Cl)c2)CC1 (stereo unspecified) | – | – | inhibition (Substance-P receptor [5]): 32%; inhibition [2]: 23% |
| CC(C)(C)O/N=C(\COCc1cc(C(F)(F)F)cc(C(F)(F)F)c1)C(CCN1CCC(O)(c2ccccc2)CC1)c1ccc(Cl)c(Cl)c1 (stereo unspecified) | – | – | inhibition (Substance-P receptor [5]): 46%; inhibition [2]: 28% |
| CN(C/C(=N\OCCCn1cncn1)C(CCN1CCC(N2CCCCC2=O)CC1)c1ccc(Cl)c(Cl)c1)C(=O)c1cc(Cl)cc(Cl)c1 (stereo unspecified) | 0.7 | 4.8 | – |
| O=C(O)CO/N=C(\COCc1cc(C(F)(F)F)cc(C(F)(F)F)c1)C(CCN1CCC(O)(c2ccccc2)CC1)c1ccc(Cl)c(Cl)c1 (stereo unspecified) | 8 | – | inhibition [2]: 20% |
| CN(C/C(=N\OCCCn1ccnc1)C(CCN1CCC(N2CCCCC2=O)CC1)c1ccc(Cl)c(Cl)c1)C(=O)c1cc(Cl)cc(Cl)c1 (stereo unspecified) | 1.6 | 6.8 | – |
| CN(C)CCO/N=C(\COCc1cc(C(F)(F)F)cc(C(F)(F)F)c1)C(CCN1CCC(O)(c2ccccc2)CC1)c1ccc(Cl)c(Cl)c1 (stereo unspecified) | 103 | – | inhibition [2]: 11% |
| CN(C/C(=N\OCCCS(=O)(=O)O)C(CCN1CCC(N2CCCCC2=O)CC1)c1ccc(Cl)c(Cl)c1)C(=O)c1cc(Cl)cc(Cl)c1 (stereo unspecified) | 3.3 | 2.7 | – |
| CCO/N=C(\COCc1cc(C(F)(F)F)cc(C(F)(F)F)c1)C(CCN1CCC(O)(c2ccccc2)CC1)c1ccc(Cl)c(Cl)c1 (stereo unspecified) | 81 | 107 | – |
| CN(C/C(=N\OCCC[N+](C)(C)C)C(CCN1CCC(N2CCCCC2=O)CC1)c1ccc(Cl)c(Cl)c1)C(=O)c1cc(Cl)cc(Cl)c1 (stereo unspecified) | 1.8 | 590 | – |
| CN(C/C(=N\OCCO)C(CCN1CCC(N2CCCCC2=O)CC1)c1ccc(Cl)c(Cl)c1)C(=O)c1cc(Cl)cc(Cl)c1 (stereo unspecified) | 0.6 | 0.8 | – |
| COC(=O)CO/N=C(\COCc1cc(C(F)(F)F)cc(C(F)(F)F)c1)C(CCN1CCC(O)(c2ccccc2)CC1)c1ccc(Cl)c(Cl)c1 (stereo unspecified) | 25 | 198 | – |
| C=CCO/N=C(\COCc1cc(C(F)(F)F)cc(C(F)(F)F)c1)C(CCN1CCC(O)(c2ccccc2)CC1)c1ccc(Cl)c(Cl)c1 (stereo unspecified) | 100 | 215 | – |
| CN(C/C(=N\OCCCn1cnnn1)C(CCN1CCC(N2CCCCC2=O)CC1)c1ccc(Cl)c(Cl)c1)C(=O)c1cc(Cl)cc(Cl)c1 (stereo unspecified) | 0.8 | 17 | – |
| CNC(=O)NCCCO/N=C(\CN(C)C(=O)c1cc(Cl)cc(Cl)c1)C(CCN1CCC(N2CCCCC2=O)CC1)c1ccc(Cl)c(Cl)c1 (stereo unspecified) | 1 | 1.7 | – |
| CN(C/C(=N\OCCCNS(C)(=O)=O)C(CCN1CCC(N2CCCCC2=O)CC1)c1ccc(Cl)c(Cl)c1)C(=O)c1cc(Cl)cc(Cl)c1 (stereo unspecified) | 1.2 | 4.5 | – |
| CC/C=C(\COCc1cc(C(F)(F)F)cc(C(F)(F)F)c1)C(CCN1CCC(O)(c2ccccc2)CC1)c1ccc(Cl)c(Cl)c1 (stereo unspecified) | 57 | – | inhibition [2]: 28% |
| CO/N=C(\CN(C)C(=O)c1cc(Cl)cc(Cl)c1)C(CCN1CCC(N2CCCCC2=O)CC1)c1ccc(Cl)c(Cl)c1 (stereo unspecified) | 4.7 | 1.6 | – |
| N#CO/N=C(\COCc1cc(C(F)(F)F)cc(C(F)(F)F)c1)C(CCN1CCC(O)(c2ccccc2)CC1)c1ccc(Cl)c(Cl)c1 (stereo unspecified) | 15 | 19 | – |
| CN(C/C(=N\OCc1c[nH]cn1)C(CCN1CCC(N2CCCCC2=O)CC1)c1ccc(Cl)c(Cl)c1)C(=O)c1cc(Cl)cc(Cl)c1 (stereo unspecified) | 2.2 | 8.5 | – |
| CC(C)CO/N=C(\COCc1cc(C(F)(F)F)cc(C(F)(F)F)c1)C(CCN1CCC(O)(c2ccccc2)CC1)c1ccc(Cl)c(Cl)c1 (stereo unspecified) | – | – | inhibition (Substance-P receptor [5]): 43%; inhibition [2]: 11% |
| CN(C/C(=N\OC(F)F)C(CCN1CCC(N2CCCCC2=O)CC1)c1ccc(Cl)c(Cl)c1)C(=O)c1cc(Cl)cc(Cl)c1 (stereo unspecified) | 1.7 | 5 | – |
| COCCNC(=O)CO/N=C(\CN(C)C(=O)c1cc(Cl)cc(Cl)c1)C(CCN1CCC(N2CCCCC2=O)CC1)c1ccc(Cl)c(Cl)c1 (stereo unspecified) | 2.2 | 48 | – |
| CN(C/C(=N\OCC(C)(C)O)C(CCN1CCC(N2CCCCC2=O)CC1)c1ccc(Cl)c(Cl)c1)C(=O)c1cc(Cl)cc(Cl)c1 (stereo unspecified) | 1.9 | 23 | – |
| OCCO/N=C(\COCc1cc(C(F)(F)F)cc(C(F)(F)F)c1)C(CCN1CCC(O)(c2ccccc2)CC1)c1ccc(Cl)c(Cl)c1 (stereo unspecified) | 20 | 14 | – |
| COCO/N=C(\COCc1cc(C(F)(F)F)cc(C(F)(F)F)c1)C(CCN1CCC(O)(c2ccccc2)CC1)c1ccc(Cl)c(Cl)c1 (stereo unspecified) | 49 | 42 | – |
